According to patent publication US6593480B2 (Abbott Laboratories, priority 1999, dated 2003):

Legend:
[1] = biological target: T1, Human glucocorticoid receptors (Homo sapiens, UniProt P04150); experiment: Radioligand filter binding assay, displacement of 3(H)-dexamethasone from human glucocorticoid receptor cytosol; conditions: 1.7 μM test compound, inhibition of 3(H)-dex binding to hGR; for inhibition at 1.7 µM: read-out: GR BINDING (% Inhibition @ 1.7 μM)
T1 construct: made in house; host or cells: Sf9 insect cells, recombinant baculovirus (BAC-TO-BAC)
T1 sequence (P04150 1-777): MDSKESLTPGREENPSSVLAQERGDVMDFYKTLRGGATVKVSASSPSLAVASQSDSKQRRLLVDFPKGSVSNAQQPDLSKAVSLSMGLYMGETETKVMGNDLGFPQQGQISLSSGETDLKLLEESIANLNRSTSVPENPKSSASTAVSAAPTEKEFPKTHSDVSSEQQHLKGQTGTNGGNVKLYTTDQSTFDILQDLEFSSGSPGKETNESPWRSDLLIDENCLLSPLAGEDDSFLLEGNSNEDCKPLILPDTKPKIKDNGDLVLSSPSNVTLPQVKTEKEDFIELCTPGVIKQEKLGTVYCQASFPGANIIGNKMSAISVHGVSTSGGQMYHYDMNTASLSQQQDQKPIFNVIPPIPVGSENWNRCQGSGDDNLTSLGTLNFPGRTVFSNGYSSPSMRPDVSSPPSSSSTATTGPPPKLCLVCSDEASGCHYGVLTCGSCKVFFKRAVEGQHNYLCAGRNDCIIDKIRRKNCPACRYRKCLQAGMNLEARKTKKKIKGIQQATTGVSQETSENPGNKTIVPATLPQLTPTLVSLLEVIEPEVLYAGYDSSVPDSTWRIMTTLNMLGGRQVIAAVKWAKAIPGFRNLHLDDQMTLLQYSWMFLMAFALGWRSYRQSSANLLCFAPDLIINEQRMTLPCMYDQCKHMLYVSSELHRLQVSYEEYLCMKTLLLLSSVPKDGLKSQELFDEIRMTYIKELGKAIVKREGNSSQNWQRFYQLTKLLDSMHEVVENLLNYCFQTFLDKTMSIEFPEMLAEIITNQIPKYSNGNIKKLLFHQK

[2] = biological target: T2, progesterone receptor (PR) (Homo sapiens, UniProt P06401); experiment: Radioligand binding assay with progesterone receptor cytosol (similar protocol)
T2 sequence (P06401 1-933): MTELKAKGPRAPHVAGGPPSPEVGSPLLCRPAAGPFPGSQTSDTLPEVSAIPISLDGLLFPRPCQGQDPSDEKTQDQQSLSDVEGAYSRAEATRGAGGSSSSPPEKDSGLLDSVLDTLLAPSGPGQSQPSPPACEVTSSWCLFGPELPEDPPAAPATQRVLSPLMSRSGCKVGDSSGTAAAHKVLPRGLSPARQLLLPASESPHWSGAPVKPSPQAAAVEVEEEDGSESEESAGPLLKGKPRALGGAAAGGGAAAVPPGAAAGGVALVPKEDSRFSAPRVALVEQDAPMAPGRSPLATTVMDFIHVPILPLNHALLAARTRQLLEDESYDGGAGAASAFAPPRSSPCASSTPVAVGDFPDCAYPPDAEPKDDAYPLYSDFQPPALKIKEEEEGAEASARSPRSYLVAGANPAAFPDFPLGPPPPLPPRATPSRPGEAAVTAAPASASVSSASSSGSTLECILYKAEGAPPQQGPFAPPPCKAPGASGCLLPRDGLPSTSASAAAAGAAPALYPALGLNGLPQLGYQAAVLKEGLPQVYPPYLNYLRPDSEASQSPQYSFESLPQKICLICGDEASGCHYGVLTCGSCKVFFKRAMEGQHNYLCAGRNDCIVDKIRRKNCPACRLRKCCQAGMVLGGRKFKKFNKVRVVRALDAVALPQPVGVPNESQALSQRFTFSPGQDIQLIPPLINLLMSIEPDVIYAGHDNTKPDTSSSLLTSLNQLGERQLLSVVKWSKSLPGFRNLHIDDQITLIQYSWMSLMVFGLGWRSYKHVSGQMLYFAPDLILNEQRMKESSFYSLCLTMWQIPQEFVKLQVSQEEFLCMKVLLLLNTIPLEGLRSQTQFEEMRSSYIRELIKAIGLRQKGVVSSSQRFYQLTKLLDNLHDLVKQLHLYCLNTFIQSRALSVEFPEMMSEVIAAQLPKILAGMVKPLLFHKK
From the text: Methods for Radioligand Binding Studies with Human Glucocorticoid and Progesterone Receptor Cytosol
A similar protocol was employed to measure affinity of the compounds of the present invention for progesterone receptor (PR).

| Compound | GR BINDING (% Inhibition @ 1.7 μM) [1] [%] | IC50 [2] [nM] | inhibition at 1.7 µM [1] [%] |
| --- | --- | --- | --- |
| COc1cccc2c1-c1ccc(NS(C)(=O)=O)cc1C(c1cccc(Oc3ccccc3)c1)O2 (stereo not shown) [Example 139, N-[1-methoxy-6-(3-phenoxyphenyl)-6H-benzo[c]chromen-8-yl]methanesulfonamide] | – | > 1000 | 90.6 |
| (1-methoxy-6-(3-carboethoxyphenyl)-6H-dibenzo(b,d)pyran-8-yl)methanesulfonamide [Example 51] | 94.0 | > 10000 | – |
| (1-methoxy-6-(4-carboethoxyphenyl)-6H-dibenzo(b,d)pyran-8-yl)methanesulfonamide [Example 52] | 92.2 | > 10000 | – |
| (1-ethynyl-6-phenyl-6H-dibenzo(b,d)pyran-8-yl)methanesulfonamide [Example 36] | 95.0 | 2240 | – |
| (1-methoxy-6-(3,4-dichlorophenyl)-6H-dibenzo(b,d)pyran-8-yl)methanesulfonamide [Example 63] | 98.5 | 1200 | – |
| (1-methoxy-6-(4-chlorophenyl)-6H-dibenzo(b,d)pyran-8-yl)methanesulfonamide [Example 61] | 91.3 | 3990 | – |
| (1-methoxy-6-(3-methoxyphenyl)-6H-dibenzo(b,d)pyran-8-yl)methanesulfonamide [Example 59] | 94.7 | 2110 | – |
| COc1cccc2c1-c1ccc(NS(C)(=O)=O)cc1C(CCCCCCC#N)O2 (stereo not shown) [Example 48] | – | > 10000 | 90.8 |
| (1-methoxy-6-allyl-6H-dibenzo(b,d)pyran-8-yl)methanesulfonamide [Example 53] | 92.9 | 1420 | – |
| (1-methoxy-6-(4-chlorobutyl)-6H-dibenzo(b,d)pyran-8-yl)methanesulfonamide [Example 57] | 94.9 | 1090 | – |
| COCCCCOc1cccc(C2Oc3cccc(OC)c3-c3ccc(NS(C)(=O)=O)cc32)c1 (stereo not shown) [Example 95, N-{1-methoxy-6-[3-(4-methoxybutoxy)phenyl]-6H-benzo[c]chromen-8-yl}methanesulfonamide] | – | > 1000 | 90 |
| (1-methoxy-6-(5-chloropent-1-yl)-6H-dibenzo(b,d)pyran-8-yl)methanesulfonamide [Example 75] | 90.1 | 1850 | – |
| C=CCOc1cccc(C2Oc3cccc(OC)c3-c3ccc(NS(C)(=O)=O)cc32)c1 (stereo not shown) [Example 33, (1-methoxy-6-(3-allyloxy)phenyl-6H-dibenzo(b,d)pyran-8-yl)-methanesulfonamide] | – | 5490 | 87.5 |
| (1-methoxy-4-methyl-6-phenyl-6H-dibenzo(b,d)pyran-8-yl)methanesulfonamide [Example 68] | 88.1 | > 10000 | – |
| (1-(2-propynyl)oxy-6-phenyl-6H-dibenzo(b,d)pyran-8-yl)methanesulfonamide [Example 45] | 91.2 | 2160 | – |
| COc1cccc2c1-c1ccc(NS(C)(=O)=O)cc1C(c1ccc(Oc3ccc(Br)cc3)cc1)O2 (stereo not shown) [Example 153] | 92.8 | > 10000 | – |
| (1-methoxy-6-(3-chloroprop-2-en-1-yl)-6H-dibenzo(b,d)pyran-8-yl)methanesulfonamide [Example 73] | 88.3 | > 1000 | – |
| COc1cccc2c1-c1ccc(NS(C)(=O)=O)c(Br)c1C(c1ccccc1)O2 (stereo not shown) [Example 2] | – | > 10000 | 67.2 |
| CS(=O)(=O)Nc1ccc2c(c1)C(c1ccccc1)Oc1cccc(CO)c1-2 (stereo not shown) [Example 104, N-[1-(hydroxymethyl)-6-phenyl-6H-benzo[c]chromen-8-yl]methanesulfonamide] | – | – | 86.8 |
| C=CCOc1ccc2c(c1OC)-c1ccc(NS(C)(=O)=O)cc1C(c1ccccc1)O2 (stereo not shown) [Example 105, N-[2-(allyloxy)-1-methoxy-6-phenyl-6H-benzo[c]chromen-8-yl]methanesulfonamide] | – | – | 83.5 |
| COc1cccc2c1-c1ccc(CC(N)=O)cc1C(c1ccccc1)O2 (stereo not shown) [Example 12, (1-methoxy-6-phenyl-6H-dibenzo(b,d)pyran-8-yl)acetamide] | – | – | 86.1 |
| COc1cccc2c1-c1ccc(NS(C)(=O)=O)cc1C(C#N)O2 (stereo not shown) [Example 90, N-(6-cyano-1-methoxy-6H-benzo[c]chromen-8-yl)methanesulfonamide] | – | – | 55.1 |

Now from value to compound:

| GR BINDING (% Inhibition @ 1.7 μM) [1] [%] | IC50 [2] [nM] | inhibition at 1.7 µM [1] [%] | Compound |
| --- | --- | --- | --- |
| 86.7 | 970 | – | (1-methoxy-6-(inden-3-yl)-6H-dibenzo(b,d)pyran-8-yl)methanesulfonamide [Example 74] |
| – | 77 | 90.4 | COc1cccc2c1-c1ccc(NS(C)(=O)=O)cc1C(c1cccc(C)c1)O2 (stereo not shown) [Example 86, N-[1-methoxy-6-(3-methylphenyl)-6H-benzo[c]chromen-8-yl]methanesulfonamide] |
| – | 370 | 92.7 | CS(=O)(=O)Nc1ccc2c(c1)C(c1ccccc1)Oc1cccc(OC(F)F)c1-2 (stereo not shown) [Example 25, N-(1-difluoromethoxy-6-phenyl-6H-dibenzo[b,d]pyran-8-yl)methanesulfonamide] |
| 93.4 | 1000 | – | (1-methoxy-6-cyclohexyl-6H-dibenzo(b,d)pyran-8-yl)methanesulfonamide [Example 55] |
| 94.5 | 172 | – | (1-methoxy-6-(5-bromothien-2-yl)-6H-dibenzo(b,d)pyran-8-yl)methanesulfonamide [Example 62] |
| 90.4 | 480 | – | (1-methoxy-6-(3-fluorophenyl)-6H-dibenzo(b,d)pyran-8-yl)methanesulfonamide [Example 77] |
| 94.1 | 450 | – | (1-methoxy-6-(2-thienyl)-6H-dibenzo(b,d)pyran-8-yl)methanesulfonamide [Example 54] |
| 89.5 | 340 | – | (1-methoxy-6-(2-bromoprop-2-en-1-yl)-6H-dibenzo(b,d)pyran-8-yl)methanesulfonamide [Example 71] |
| 91.6 | 222 | – | (1,2-methylenedioxy-6-phenyl-6H-dibenzo(b,d)pyran-8-yl)methanesulfonamide [Example 66] |
| – | 280 | 92.5 | COCCCc1ccc(C2Oc3cccc(OC)c3-c3ccc(NS(C)(=O)=O)cc32)s1 (stereo not shown) [Example 138, N-{1-methoxy-6-[5-(3-methoxypropyl)-2-thienyl]-6H-benzo[c]chromen-8-yl}methanesulfonamide] |
| – | 800 | 88.9 | COc1cccc2c1-c1ccc(NS(C)(=O)=O)cc1[C@H](c1ccccc1)O2 [Example 24, 6S-(1-methoxy-6-phenyl-6H-dibenzo(b,d)pyran-8-yl)methanesulfonamide] |
| 93.7 | 1050 | – | (1-methoxy-6-(3-cyanophenyl)-6H-dibenzo(b,d)pyran-8-yl)methanesulfonamide [Example 50] |
